The values that follow come from publication PMC4388264, “ANS complex of St John’s wort PR-10 protein with 28 copies in the asymmetric unit: a fiendish combination of pseudosymmetry with tetartohedral twinning” (Acta Crystallographica Section D: Biological Crystallography, 2015).

Broadly, the Kd is the free concentration of one partner at which half of the binding sites on the other are occupied at equilibrium, for simple one-to-one binding. The low end stands for higher affinity, the high end for lower affinity.

The test has as its target T1, Hyp-1 (Hypericum perforatum, UniProt Q8H1L1).
T1 construct: gene HYP1.1; recombinant Hyp-1 with an N-terminal hexapeptide extension (GIDPFW–) as a cloning artifact
T1 sequence (Q8H1L1 1-159): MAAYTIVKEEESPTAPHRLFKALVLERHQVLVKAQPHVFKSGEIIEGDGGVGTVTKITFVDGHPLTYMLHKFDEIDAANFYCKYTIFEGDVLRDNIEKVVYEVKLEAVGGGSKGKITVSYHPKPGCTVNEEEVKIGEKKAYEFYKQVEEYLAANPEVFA
Kind of test: crystal structure at […] Å and ITC (N = […]); fluorometric titration gave Kd […]. It is filed as binding.

In the case of `O=S(=O)(O)c1cccc2cccc(Nc3ccccc3)c12` [ANS, 8-anilino-1-naphthalene sulfonate], binding was characterised by a dissociation constant (Kd) of 108 ± 3 µM.
